From PMC7407491, “The Addition of a Synthetic LPS-Targeting Domain Improves Serum Stability While Maintaining Antimicrobial, Antibiofilm, and Cell Stimulating Properties of an Antimicrobial Peptide” (Biomolecules, 2020)
≈ marks a conversion by molar mass, not a printed value.

What was measured:
Test in all cases: Antibiogram of clinical isolate
Assay type in all cases: cell-based
Set-up in all cases: key to Interpretation: R represents “resistant”; I represents “intermediate”; S represents “sensitive”
[1] = tested on: Methicillin Resistant Staphylococcus aureus; settings: veterinary clinical isolate; for MIC: Staphylococcus aureus, read-out: MIC
Procedure: (§1) Veterinary clinical isolates, including Salmonella typhimurium, multi-drug resistant Escherichia coli, methicillin-resistant Staphylococcus aureus (MRSA), and methicillin-resistant Staphylococcus pseudointermedius (MRSP), were kindly provided by Dr. H. Cai (Department of Pathobiology, University of Guelph, ON, Canada). An antibiogram for these strains is available in the supplementary text (Table S1). Gram-negative strains were cultured in Luria−Bertani (LB) broth. Gram-positive strains were cultured in Tryptic soy broth (TSB). Both cultures were grown under aerobic conditions at 37 °C.
(§2) 1 Where R represents “resistant”, I represents “intermediate” and S represents “sensitive”.
(§3) 2 MIC represents the minimal inhibitory concentration of the antibiotic in mcg/mL.
(§4) 3 mm represents the diameter zone of inhibition against antibiotic disc.

Escherichia coli = settings: multi-drug resistant veterinary clinical isolate; for MIC: Escherichia coli, read-out: MIC
Procedure: as §1, §2, §3, §4

[2] = tested on: Methicillin Resistant Staphylococcus pseudointermedius; settings: veterinary clinical isolate; for MIC: Staphylococcus, read-out: MIC
Procedure: as §1, §2, §3, §4

Compound	MIC [1] [µg/mL]	Interpretation [1]	diameter zone of inhibition against antibiotic disc [1] [mm]	MIC (Escherichia coli) [µg/mL]	Interpretation (Escherichia coli)	diameter zone of inhibition against antibiotic disc (Escherichia coli) [mm]	MIC [2] [µg/mL]	Interpretation [2]	diameter zone of inhibition against antibiotic disc [2] [mm]
NCC[C@H](O)C(=O)N[C@@H]1C[C@H](N)[C@@H](O[C@H]2O[C@H](CN)[C@@H](O)[C@H](O)[C@H]2O)[C@H](O)[C@H]1O[C@H]1O[C@H](CO)[C@@H](O)[C@H](N)[C@H]1O [Amikacin]	9.5 (≈ 16.2 µM)	S	18						
CC1(C)S[C@@H]2[C@H](NC(=O)[C@H](N)c3ccccc3)C(=O)N2[C@H]1C(=O)O [Ampicillin]	19 (≈ 54.4 µM)	R	11	> 46	R	6	12 (≈ 34.3 µM)	R	13
CC1(C)S[C@@H]2[C@H](NC(=O)C(C(=O)O)c3ccccc3)C(=O)N2[C@H]1C(=O)O (stereo partly drawn) [Carbenicillin]		R	15						
C=CC1=C(C(=O)O)N2C(=O)[C@@H](NC(=O)/C(=N\OCC(=O)O)c3csc(N)n3)[C@H]2SC1 [Cefixime]	> 26	R	6						
CO/N=C(/C(=O)N[C@@H]1C(=O)N2C(C(=O)O)=C([C@@H]3CCCO3)CS[C@H]12)c1csc(N)n1 [Cefovecin]					R	6		R	21
CO[C@@]1(NC(=O)Cc2cccs2)C(=O)N2C(C(=O)O)=C(COC(N)=O)CS[C@@H]21 [Cefoxitin]				> 69	R	6		R	24
CC(C)(O/N=C(\C(=O)N[C@@H]1C(=O)N2C(C(=O)[O-])=C(C[n+]3ccccc3)CS[C@H]12)c1csc(N)n1)C(=O)O [Ceftazidime]	41 (≈ 75 µM)	R	13						
CO/N=C(\C(=O)N[C@@H]1C(=O)N2C(C(=O)O)=C(CSC(=O)c3ccco3)CS[C@H]12)c1csc(N)n1 [Ceftiofur]	3.9 (≈ 7.45 µM)	R	19						
O=C(N[C@H](CO)[C@H](O)c1ccc([N+](=O)[O-])cc1)C(Cl)Cl [Chloramphenicol]	4.5 (≈ 13.9 µM)	S	26						
CCC[C@@H]1C[C@@H](C(=O)N[C@@H]([C@H]2O[C@H](SC)[C@H](O)[C@@H](O)[C@H]2O)[C@H](C)Cl)N(C)C1 [Clindamycin]	> 10	R	6				> 10	R	7
CN1CCN(c2cc3c(cc2F)c(=O)c(C(=O)O)cn3-c2ccc(F)cc2)CC1 [Difloxacin]	≤ 0.07	S	30						
C[C@@H](O)[C@H]1C(=O)N2C(C(=O)O)=C(SCCN=CN)C[C@H]12 [Imipenem]	≤ 0.56	R	39						
Cc1onc(-c2ccccc2)c1C(=O)N[C@@H]1C(=O)N2[C@@H]1SC(C)(C)[C@@H]2C(=O)O [Oxacillin]		R	6				1.8 (≈ 4.48 µM)	R	14
CCN1CCN(C(=O)N[C@@H](C(=O)N[C@@H]2C(=O)N3[C@@H]2SC(C)(C)[C@@H]3C(=O)O)c2ccccc2)C(=O)C1=O [Piperacillin]		R	12						
CC1(C)S[C@@H]2[C@H](NC(=O)[C@H](C(=O)O)c3ccsc3)C(=O)N2[C@H]1C(=O)O [Ticarcillin]		R	14						
Polymixin-B		R	9						
Titracillin-clavulanate		R	15						
